In the supplement of paper PMC4862054:
Where “and” joins values, the source holds several entries; their conditions need not be identical. Equal entries are not always repeated.

Key:
Conditions in all cases: incubation time: 72 h
[1] = tested on: DU-4475; assay: drug sensitivity score (DSS), CellTiter-Glo (DSS (AUC-based score)); higher = stronger drug effect (viability inhibition or cytotoxicity); extreme values may be limits of the assay
Method in brief: (§1)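 After 72 h of incubation in 384-well plates with compound at 5 concentrations (10-fold steps, 10,000-fold range set per compound), breast cancer cell lines seeded in 20 µl suspension were read first for CellTox Green fluorescence at 485/520 nm. CellTiter-Glo luminescence was measured next, after 10 min at room temperature. Normalisation on each plate used 0.1 % DMSO and a positive kill control, and the drug sensitivity score was computed from the area under the fitted dose-response curve.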

[2] = tested on: BT-549; assay: as above
Method in brief: as §1

[3] = tested on: MDA-MB-468; assay: as above
Method in brief: as §1

[4] = tested on: MDA-MB-436; assay: as above
Method in brief: as §1

[5] = tested on: BT-474; assay: as above
Method in brief: as §1

[6] = tested on: HCC1143; assay: as above
Method in brief: as §1

[7] = tested on: MDA-MB-231; assay: as above
Method in brief: as §1

[8] = tested on: MCF-10A; assay: as above
Method in brief: as §1

[9] = tested on: CAL-51; assay: drug sensitivity score (DSS), CellTiter-Blue viability (DSS (AUC-based score)); higher = stronger viability inhibition; extreme values may be limits of the assay
Procedure: (§2)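 DSRT with the CellTiter-Blue (resazurin reduction) viability readout, fluorescence 560/590 nm, 72 h incubation. Plates were normalised to DMSO and benzethonium chloride controls. DSS is computed from the area under the fitted dose-response curve (5 or 9 concentrations).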

[10] = tested on: DU-4475; assay: as above
Procedure: as §2

[11] = tested on: CAL-85-1; assay: as above
Procedure: as §2

[12] = tested on: HCC1937; assay: as above
Procedure: as §2

[13] = tested on: CAL-148; assay: as above
Procedure: as §2

[14] = tested on: MFM-223; assay: as above
Procedure: as §2

[15] = tested on: BT-549; assay: as above
Procedure: as §2

[16] = tested on: HDQ-P1; assay: as above
Procedure: as §2

[17] = tested on: MDA-MB-468; assay: as above
Procedure: as §2

[18] = tested on: HCC1599; assay: as above
Procedure: as §2

[19] = tested on: CAL-120; assay: as above
Procedure: as §2

[20] = tested on: MDA-MB-436; assay: as above
Procedure: as §2

[21] = tested on: MDA-MB-453; assay: as above
Procedure: as §2

[22] = tested on: BT-474; assay: as above
Procedure: as §2

[23] = tested on: SK-BR-3; assay: as above
Procedure: as §2

[24] = tested on: HCC1143; assay: as above
Procedure: as §2

[25] = tested on: MDA-MB-231; assay: as above
Procedure: as §2

[26] = tested on: Hs578T; assay: as above
Procedure: as §2

SMILES	drug sensitivity score [1]	drug sensitivity score [2]	drug sensitivity score [3]	drug sensitivity score [4]	drug sensitivity score [5]	drug sensitivity score [6]	drug sensitivity score [7]	drug sensitivity score [8]	drug sensitivity score [9]	drug sensitivity score [10]	drug sensitivity score [11]	drug sensitivity score [12]	drug sensitivity score [13]	drug sensitivity score [14]	drug sensitivity score [15]	drug sensitivity score [16]	drug sensitivity score [17]	drug sensitivity score [18]	drug sensitivity score [19]	drug sensitivity score [20]	drug sensitivity score [21]	drug sensitivity score [22]	drug sensitivity score [23]	drug sensitivity score [24]	drug sensitivity score [25]	drug sensitivity score [26]
CCNC(=O)CCC/C=C\C[C@@H]1[C@@H](/C=C/[C@@H](O)CCc2ccccc2)[C@H](O)C[C@@H]1O [Bimatoprost]	0	0	0	0	0	0	0	0	0	0	0	0	0	0	0	0	0	0	0	0	0	0	0	0	0	0
Cc1cn(-c2cc(NC(=O)c3ccc(C)c(Nc4nccc(-c5cccnc5)n4)c3)cc(C(F)(F)F)c2)cn1 [Nilotinib]	0	1.04	0	0	0	0	0	0	0	0	0	6.24 and 6.45	0	0	6.16 and 6.02	0	0	0	0	0	0	0	0	0	4.55 and 5.18	0
CNC(=O)c1ccccc1Sc1ccc2c(/C=C/c3ccccn3)n[nH]c2c1 [Axitinib]	0	1.06	4.94	1.91	0	0	0	0	6.1	6.24	4.41	5.79	5.17	11.4	4.37	4.73	1.45	0	0	13.7	7.1	0	0	2.06	2.62	0
C=CCn1c(=O)c2cnc(Nc3ccc(N4CCN(C)CC4)cc3)nc2n1-c1cccc(C(C)(C)O)n1 [MK1775]	8.47	15.7	12.5	16.7	13.9	11.6	15.7	9.77	16.2	15	11.1	15	18.3	12.4	13.3	13.6	11.5	7.82	16	13.3	15.1	13	20.4	9.62	15	14.2
CC(=O)[C@]1(O)Cc2c(O)c3c(c(O)c2[C@@H](O[C@H]2C[C@H](N)[C@H](O)[C@H](C)O2)C1)C(=O)c1ccccc1C3=O [Idarubicin]	8.12	9.35	9.11	8.24	4.44	3.11	4.79	3.11	21	18.3	6.93	21.4	19.7	6	11.5	6.33	14.2	0.917	14.5	9.77	4.55	10.2	17.7	8.64	11.9	11.4
COc1cc(Nc2c(C#N)cnc3cc(OCCCN4CCN(C)CC4)c(OC)cc23)c(Cl)cc1Cl [Bosutinib]	0	4.99	8.1	7.31	6.85	3.67	8.52	15.1	3.35	2.82	5.55	6.37	7.34	4.68	5.28	6.6	5.03	3.68	8.36	4.98	6.37	5.59	7.78	5.05	6.93	3.1
Cn1cc(C2=C(c3cn(C4CCN(Cc5ccccn5)CC4)c4ccccc34)C(=O)NC2=O)c2ccccc21 [Enzastaurin]	0	0	0	0	0	0	0	0	0	0	0	5.39	5.06	6.5	6.55	1.6	0	0	0	9.96	7.69	2.68	10.1	5.14	0	9.93
Nc1ccn([C@@H]2O[C@H](CO)[C@@H](O)C2(F)F)c(=O)n1 [Gemcitabine]	4.13	14.7	19.7	16.8	3.22	14.5	0	5.69	17.6	10.7	12	16.2	16.9	2.55	6.97	0	16.1	7.74	14.7	9.62	11	0	13.4	13.2	7.17	7.89
CO[C@@H]1[C@H](N(C)C(=O)c2ccccc2)C[C@H]2O[C@]1(C)n1c3ccccc3c3c4c(c5c6ccccc6n2c5c31)C(=O)NC4 [Midostaurin]	9.68	13.8	14.6	3.96	10.5	8.75	10.8	17	19.4	15.8	3.45	10	0	4.68	9.72	10.9	9.5	3.48	8.21	8.07	7.82	0	6.46	4.83	9.28	14.9
C/C(=C\c1csc(C)n1)[C@@H]1C[C@@H]2O[C@]2(C)CCC[C@H](C)[C@H](O)[C@@H](C)C(=O)C(C)(C)[C@@H](O)CC(=O)N1 [Ixabepilone]	0	13.9	13.9	0	1.23	0	0	0	0.607	2.31	2.08	5.41	2.58	2.45	3.35	0	3.09	1.1	0.647	4.17	3.24	2.15	3.73	1.78	10.5	2.45
CC(C)C[C@H](NC(=O)[C@@H](COC(C)(C)C)NC(=O)[C@H](Cc1ccc(O)cc1)NC(=O)[C@H](CO)NC(=O)[C@H](Cc1c[nH]c2ccccc12)NC(=O)[C@H](Cc1cnc[nH]1)NC(=O)[C@@H]1CCC(=O)N1)C(=O)N[C@@H](CCCNC(=N)N)C(=O)N1CCC[C@H]1C(=O)NNC(N)=O [Goserelin]	0	0	0	0	0	0	0	0	0	0	0	0	0	0	0	0	0	0	0	0	0	0	0	0	0	0
COc1ccc(S(=O)(=O)Nc2cccnc2Nc2ccc(O)cc2)cc1 [ABT-751]	5.29	9.41	12	11.4	6.74	6.19	7.19	2.74	11.8	10.1	13.7	14.9	10.7	8.15	6.81	12	8.8	5.55	14.5	10.4	17.9	7	18.5	9.7	14.3	17.3
